Assay [1] concerns the target T1, Epidermal growth factor receptor (Homo sapiens, UniProt P00533). In words: Inhibition of autophosphorylation of recombinant His-tagged EGFR expressed in baculovirus infected Sf9 cells after 1 hr by DELFIA/time-resolved fluorimetry assay.
For the next assay, the system named is MCF7. In words: Antiproliferative activity against human MCF7 cells after 48 hrs by MTT assay. It counts as functional, cell-based. Particulars: MCF7, 48 h.
The target in assay [2] is T1, Epidermal growth factor receptor. Put plainly: Inhibition of EGF-stimulated EGFR autophosphorylation in human MCF7 cells at >1.5 uM treated 1 hr before EGF challenge measured after 15 mins by Western immunoblot analysis. In kind it is cell-based. In general terms: Immunoblotting shows a protein as a band on a membrane.

pIC50: −log10 of the molar value. Activity calls are given as the source filed them. The rule behind the calls is not given here. Some results are limits rather than exact numbers.

Drawing on ChEMBL document CHEMBL1944626, “Design, synthesis and biological evaluation of N-phenylsulfonylnicotinamide derivatives as novel antitumor inhibitors” (Bioorg Med Chem, 2012), this text covers IC50 and inhibition for 23 molecules.

T1 sequence (P00533 whole entry): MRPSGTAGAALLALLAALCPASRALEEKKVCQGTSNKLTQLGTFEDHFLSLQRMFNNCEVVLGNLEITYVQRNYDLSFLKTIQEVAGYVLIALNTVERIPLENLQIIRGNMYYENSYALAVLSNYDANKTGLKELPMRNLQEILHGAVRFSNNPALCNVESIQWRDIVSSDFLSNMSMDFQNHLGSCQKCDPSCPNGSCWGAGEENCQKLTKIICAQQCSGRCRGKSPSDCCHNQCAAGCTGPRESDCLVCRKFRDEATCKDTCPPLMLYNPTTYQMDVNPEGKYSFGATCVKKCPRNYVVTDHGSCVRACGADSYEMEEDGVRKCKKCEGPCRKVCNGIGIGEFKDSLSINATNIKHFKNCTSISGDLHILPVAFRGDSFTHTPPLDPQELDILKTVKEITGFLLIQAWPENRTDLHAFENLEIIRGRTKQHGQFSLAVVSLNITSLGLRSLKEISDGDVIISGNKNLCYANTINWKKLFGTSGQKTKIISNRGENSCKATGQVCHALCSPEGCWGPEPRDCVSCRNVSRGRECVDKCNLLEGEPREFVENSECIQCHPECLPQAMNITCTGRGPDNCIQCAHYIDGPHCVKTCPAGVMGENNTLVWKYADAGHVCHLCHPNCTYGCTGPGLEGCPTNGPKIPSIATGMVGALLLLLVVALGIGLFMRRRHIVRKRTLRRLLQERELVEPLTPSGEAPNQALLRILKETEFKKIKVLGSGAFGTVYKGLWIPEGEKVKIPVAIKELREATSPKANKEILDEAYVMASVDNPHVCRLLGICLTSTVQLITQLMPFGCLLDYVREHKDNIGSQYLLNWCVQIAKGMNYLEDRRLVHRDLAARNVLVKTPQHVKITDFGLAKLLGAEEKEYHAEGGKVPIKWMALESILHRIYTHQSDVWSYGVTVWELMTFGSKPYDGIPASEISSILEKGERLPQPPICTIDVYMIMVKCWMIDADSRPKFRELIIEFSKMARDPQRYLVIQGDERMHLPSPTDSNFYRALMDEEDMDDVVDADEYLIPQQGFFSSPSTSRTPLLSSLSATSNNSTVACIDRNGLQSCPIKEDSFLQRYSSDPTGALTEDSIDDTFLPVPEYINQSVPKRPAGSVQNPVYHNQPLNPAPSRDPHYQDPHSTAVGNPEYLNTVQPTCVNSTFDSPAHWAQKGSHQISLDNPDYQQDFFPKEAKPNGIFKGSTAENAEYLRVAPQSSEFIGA

By pIC50 is commonly meant the negative decadic logarithm of the IC50, by convention in mol/L. Regarding `Cc1ccc(C(=O)NS(=O)(=O)c2ccc(Br)cc2)c(Cl)n1`, the figures for the pIC50 (in assay [1]; in the assay on MCF7) were 5.58 and 5.71, respectively.

For `O=C(NS(=O)(=O)c1ccccc1)c1cccnc1`, the figures for the negative logarithm of the IC50 (pIC50) (in assay [1]; in the assay on MCF7) were below 4.52 and 4.84, respectively.

With `O=C(NS(=O)(=O)c1ccc(Cl)cc1)c1ccc(Cl)nc1`, the negative-log IC50 (pIC50) in assay [1] is 4.74; in the assay with MCF7, 5.09.

With `O=C(NS(=O)(=O)c1ccc(Cl)cc1)c1cccnc1Cl`, the pIC50 in assay [1] was 4.70; with MCF7, 4.99.

On to `O=C(NS(=O)(=O)c1ccc(F)cc1)c1cncc(Br)c1`, for which the negative-log IC50 (pIC50) in assay [1] was 5.49; in the assay with MCF7 it was 6.01.

As to `O=C(NS(=O)(=O)c1ccc(Cl)cc1)c1cccnc1`, the pIC50 in assay [1] is 4.60; in the assay with MCF7, 4.89.

As to `O=C(NS(=O)(=O)c1ccc(Br)cc1)c1cccnc1`, the pIC50 is below 4.52 in assay [1] and 4.83 in the assay with MCF7.

As to `O=C(NS(=O)(=O)c1ccc(Br)cc1)c1cccnc1Cl`, the pIC50 was 4.80 in assay [1] and 4.94 in the assay on MCF7.

As to `Cc1ccc(S(=O)(=O)NC(=O)c2ccc(C)nc2Cl)cc1`, the pIC50 in assay [1] was 4.82; in the assay on MCF7, 5.07.

In the case of `O=C(NS(=O)(=O)c1ccccc1)c1cccnc1Cl`, the negative logarithm of the IC50 (pIC50) in assay [1] is below 4.52; in the assay with MCF7 it was 4.85.

In the case of `Cc1ccc(C(=O)NS(=O)(=O)c2ccccc2)c(Cl)n1`, the pIC50 in assay [1] is 4.67; in the assay with MCF7 it was 4.87.

As to `O=C(NS(=O)(=O)c1ccc(Br)cc1)c1ccc(Cl)nc1`, the pIC50 is 4.54 in assay [1] and 5.04 with MCF7.

Regarding `O=C(NS(=O)(=O)c1ccc(Cl)cc1)c1cncc(Br)c1`, in assay [2], the inhibition result was “Active”. Besides, the pIC50 is 7.05 in assay [1] and 7.15 in the assay with MCF7.

Take `O=C(NS(=O)(=O)c1ccc(F)cc1)c1cccnc1Cl`: the results for the negative logarithm of the IC50 (pIC50) (in assay [1]; in the assay on MCF7) were 4.54 and 4.90, respectively.

In the case of `Cc1ccc(S(=O)(=O)NC(=O)c2cccnc2)cc1`, the negative-log IC50 (pIC50) in assay [1] was 4.61; with MCF7 it was 4.92.

Turning to `Cc1ccc(S(=O)(=O)NC(=O)c2ccc(Cl)nc2)cc1`, the negative logarithm of the IC50 (pIC50) in assay [1] is below 4.52; in the assay on MCF7, 4.76.

On to `O=C(NS(=O)(=O)c1ccc(Br)cc1)c1cncc(Br)c1`, for which the pIC50 in assay [1] is 5.68; in the assay with MCF7, 6.47.

Take `Cc1ccc(C(=O)NS(=O)(=O)c2ccc(Cl)cc2)c(Cl)n1`: the figures for the pIC50 (in assay [1]; with MCF7) were 5.92 and 5.87, respectively.

Consider `O=C(NS(=O)(=O)c1ccc(F)cc1)c1cccnc1`, for which the pIC50 in assay [1] is below 4.52; with MCF7, 4.80.

Regarding `O=C(NS(=O)(=O)c1ccccc1)c1ccc(Cl)nc1`, the pIC50 is below 4.52 in assay [1] and 4.85 with MCF7.

For the molecule `Cc1ccc(S(=O)(=O)NC(=O)c2cncc(Br)c2)cc1`, the figures for the pIC50 (in assay [1]; in the assay on MCF7) were 4.92 and 5.03, respectively.

For `O=C(NS(=O)(=O)c1ccc(F)cc1)c1ccc(Cl)nc1`, the negative-log IC50 (pIC50) in assay [1] is below 4.52; in the assay with MCF7 it was 4.77.

As for `Cc1ccc(S(=O)(=O)NC(=O)c2cccnc2Cl)cc1`, the negative-log IC50 (pIC50) was 4.57 in assay [1] and 4.90 in the assay with MCF7.
